In the supplement of paper PMC11451515:

How the values were obtained:
NOMO1 [1] = assay: cell viability relative to DMSO control; higher = less cytotoxic; conditions: RPMI 5 mM glucose + 10% FBS, 48 h
Summary of the method: (§1)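 NOMO1 or SEM cells were plated at 500 cells/well and P12-Ichikawa cells at 1000 cells/well in 1536-well plates (5 μl), after each leukemia line had been adapted for at least four passages in each medium. Pin dosing delivered library compounds in DMSO at 11 threefold concentrations, 47 μM to 0.79 nM. CellTiter-Glo One luminescence was read after 48 h at 37°C. Viability is reported as a per-plate percentage of DMSO wells, with cell-free wells as background.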

NOMO1 [2] = assay: AUC of viability dose-response curve (% viability x log10 dose units); higher = less sensitive; conditions: 48 h
Summary of the method: (§2)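 Leukemia cells adapted to each medium (500 or 1000 cells/well, 1536-well plates) were exposed to library compounds in DMSO for 48 h at 37°C at 11 threefold doses, 47 μM to 0.79 nM. Luminescence by CellTiter-Glo One was normalised per plate to DMSO and cell-free wells, then fitted with a four-parameter log-logistic curve on log10 dose. Curves above full viability were scaled and quality-control failures removed before area under the curve was integrated by trapezoidal rule.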

P12-Ichikawa [3] = assay: as above; conditions: 48 h
Summary of the method: as §2

SEM cells [4] = assay: as above; conditions: 48 h
Summary of the method: as §2

P12-Ichikawa [5] = assay: cell viability relative to DMSO control; higher = less cytotoxic; conditions: HPLM + 10% dialyzed FBS, 48 h
Summary of the method: as §1

SEM cells [6] = assay: as above; conditions: 48 h
Summary of the method: as §1

Cc1cc(CN2CCN(c3c(Br)cnc4[nH]c(-c5ccc(N6CCN(C)CC6)cc5)nc34)CC2)no1
Conditions	AUC of viability dose-response curve	cell viability [%]
NOMO1 [1], 0.000781 µM	–	120
NOMO1 [1], 0.00234 µM	–	131
NOMO1 [1], 0.00702 µM	–	120
NOMO1 [1], 0.0211 µM	–	129
NOMO1 [1], 0.0632 µM	–	138
NOMO1 [1], 0.19 µM	–	117
NOMO1 [1], 0.569 µM	–	113
NOMO1 [1], 1.71 µM	–	70.2
NOMO1 [1], 5.12 µM	–	102
NOMO1 [1], 15.4 µM	–	78.1
NOMO1 [1], 46.1 µM	–	80.6
NOMO1 [2], HPLM + 10% dialyzed FBS	377	–
NOMO1 [2], RPMI 5 mM glucose + 10% FBS	415	–
NOMO1 [2], RPMI 5 mM glucose + 10% dialyzed FBS	410	–
P12-Ichikawa [3], HPLM + 10% dialyzed FBS	329	–
P12-Ichikawa [3], RPMI 5 mM glucose + 10% FBS	333	–
P12-Ichikawa [3], RPMI 5 mM glucose + 10% dialyzed FBS	348	–
SEM cells [4], HPLM + 10% dialyzed FBS	317	–
SEM cells [4], RPMI 5 mM glucose + 10% FBS	310	–
SEM cells [4], RPMI 5 mM glucose + 10% dialyzed FBS	307	–

CC1=NN(c2ccc(C)c(C)c2)C(=O)/C1=N/Nc1cccc(-c2cccc(C(=O)O)c2)c1O
Conditions	AUC of viability dose-response curve	cell viability [%]
NOMO1 [2], HPLM + 10% dialyzed FBS	431	–
NOMO1 [2], RPMI 5 mM glucose + 10% FBS	448	–
NOMO1 [2], RPMI 5 mM glucose + 10% dialyzed FBS	428	–
P12-Ichikawa [3], HPLM + 10% dialyzed FBS	448	–
P12-Ichikawa [3], RPMI 5 mM glucose + 10% FBS	430	–
P12-Ichikawa [3], RPMI 5 mM glucose + 10% dialyzed FBS	426	–
P12-Ichikawa [5], 0.000781 µM	–	120
P12-Ichikawa [5], 0.00234 µM	–	120
P12-Ichikawa [5], 0.00702 µM	–	129
P12-Ichikawa [5], 0.0211 µM	–	124
P12-Ichikawa [5], 0.0632 µM	–	116
P12-Ichikawa [5], 0.19 µM	–	127
P12-Ichikawa [5], 0.569 µM	–	121
P12-Ichikawa [5], 1.71 µM	–	118
P12-Ichikawa [5], 5.12 µM	–	112
P12-Ichikawa [5], 15.4 µM	–	91.1
P12-Ichikawa [5], 46.1 µM	–	68.1
SEM cells [4], HPLM + 10% dialyzed FBS	453	–
SEM cells [4], RPMI 5 mM glucose + 10% FBS	448	–
SEM cells [4], RPMI 5 mM glucose + 10% dialyzed FBS	442	–

cell viability [%], SEM cells [6]
Conditions	HPLM + 10% dialyzed FBS	RPMI 5 mM glucose + 10% FBS
0.000781 µM	121	124
0.00234 µM	119	122
0.00702 µM	125	128
0.0211 µM	128	130
0.0632 µM	111	129
0.19 µM	117	122
0.569 µM	120	123
1.71 µM	119	122
5.12 µM	109	121
15.4 µM	97.6	90.4
46.1 µM	75.3	54.7

CC(C)c1cnn2c(NCc3ccccc3)cc(N[C@@H](CO)[C@H](O)CO)nc12
Conditions	AUC of viability dose-response curve	cell viability [%]
NOMO1 [2], HPLM + 10% dialyzed FBS	297	–
NOMO1 [2], RPMI 5 mM glucose + 10% FBS	303	–
NOMO1 [2], RPMI 5 mM glucose + 10% dialyzed FBS	302	–
P12-Ichikawa [3], HPLM + 10% dialyzed FBS	327	–
P12-Ichikawa [3], RPMI 5 mM glucose + 10% FBS	313	–
P12-Ichikawa [3], RPMI 5 mM glucose + 10% dialyzed FBS	320	–
P12-Ichikawa [5], 0.000781 µM	–	121
P12-Ichikawa [5], 0.00234 µM	–	128
P12-Ichikawa [5], 0.00702 µM	–	124
P12-Ichikawa [5], 0.0211 µM	–	127
P12-Ichikawa [5], 0.0632 µM	–	129
P12-Ichikawa [5], 0.19 µM	–	127
P12-Ichikawa [5], 0.569 µM	–	120
P12-Ichikawa [5], 1.71 µM	–	35.4
P12-Ichikawa [5], 5.12 µM	–	8.12
P12-Ichikawa [5], 15.4 µM	–	5.35
P12-Ichikawa [5], 46.1 µM	–	4.01
SEM cells [4], HPLM + 10% dialyzed FBS	299	–
SEM cells [4], RPMI 5 mM glucose + 10% FBS	290	–
SEM cells [4], RPMI 5 mM glucose + 10% dialyzed FBS	299	–

cell viability [%], SEM cells [6]
Conditions	HPLM + 10% dialyzed FBS	RPMI 5 mM glucose + 10% dialyzed FBS
0.000781 µM	117	121
0.00234 µM	140	134
0.00702 µM	120	121
0.0211 µM	119	123
0.0632 µM	142	120
0.19 µM	136	121
0.569 µM	79.9	80.7
1.71 µM	9.33	8.71
5.12 µM	5.66	5.19
15.4 µM	4.28	3.66
46.1 µM	1.69	1.44
